{
  "source": "patent US7714009B2",
  "about": "“Nitrogen-containing fused heterocyclic compounds” (Takeda Pharmaceutical Company Limited, priority 2003, dated 2010)",
  "molecular_target": "T1, human CRF receptor (Homo sapiens, UniProt P34998)",
  "T1 construct": "expressed in transfected cells; host or cells: CHO cells (membrane fraction)",
  "T1 sequence (P34998 24-415)": "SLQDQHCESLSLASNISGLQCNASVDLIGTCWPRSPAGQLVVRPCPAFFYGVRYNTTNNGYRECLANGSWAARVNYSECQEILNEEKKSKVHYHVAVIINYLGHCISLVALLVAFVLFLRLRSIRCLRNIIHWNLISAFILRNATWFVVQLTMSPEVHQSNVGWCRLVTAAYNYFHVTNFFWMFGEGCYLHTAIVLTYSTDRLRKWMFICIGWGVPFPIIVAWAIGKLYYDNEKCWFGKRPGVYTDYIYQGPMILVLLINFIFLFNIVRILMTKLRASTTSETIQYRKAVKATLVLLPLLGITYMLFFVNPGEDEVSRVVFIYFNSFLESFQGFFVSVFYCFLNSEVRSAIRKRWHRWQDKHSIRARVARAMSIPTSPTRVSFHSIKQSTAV",
  "assay": "Measurement of Corticotropin-Releasing Factor (CRF) Binding Inhibitory Rate",
  "settings": "1000 nM test compound; human CRF receptor expressing CHO cellular membrane fraction; 50 pM 125I-CRF; room temperature 1 hour",
  "protocol": "Measurement of Corticotropin-Releasing Factor (CRF) Binding Inhibitory Rate\nA receptor binding experiment was carried out using a human CRF receptor expressing CHO cellular membrane fraction and sheep CRF, [^125I]-tyr^0(^125I-CRF). 1000 nM of a test compound was incubated with 1 μg of human CRF receptor expressing CHO cellular membrane fraction and 50 pM of ^125I-CRF in a binding assay buffer (50 mM Tris-HCl, 5 mM EDTA, 10 mM MgCl2, 0.05% CHAPS, 0.1% BSA, 0.5 mM PMSF, […] pepstatin, 20 μg/ml leupeptin, pH 7.5). In addition, for measuring nonspecific binding (NSB), 0.1 μM unlabelled human Urocortin was incubated with 1 μg of human CRF receptor expressing CHO cellular membrane fraction and 50 pM of ^125I-CRF in a binding assay buffer. After a binding reaction was carried out at room temperature for 1 hour, the membrane was entrapped on a glass filter (UniFilter plate GF-C/Perkin Elmer) by suction filtration using a cell harvester (Perkin Elmer), and washed with ice-cooled 50 mM Tris-HCl (pH 7.5). After drying the glass filter, a liquid scintillation cocktail (Microscinti 0, Perkin Elmer) was added, and the radioactivity of ^125I-CRF remaining on a glass filter was measured using Topcount (Perkin Elmer).\n(TB−SB)/(TB−NSB)×100 (SB: radioactivity when a compound is added, TB: maximum binding radioactivity, NSB: nonspecific binding radioactivity) was calculated to obtain a binding inhibitory rate under the presence of 1,000 nM or 100 nM of each test substances.",
  "data": [
    {"smiles": "CCCN(CCC)c1cccc2nc(Nc3c(C)cc(C)cc3C)n(C)c12", "note": "[Example 26, N^2-Mesityl-1-methyl-N^7,N^7-dipropyl-1H-benzimidazole-2,7-diamine]", "values": [
      {"measurement": "inhibition at 1 µM", "value": "> 80", "unit": "%"}
    ]},
    {"smiles": "CCCN(CCC)c1cccc2nc(Nc3c(C)cc(C)cc3Cl)n(C)c12", "note": "[Example 42, N^2-(2-chloro-4,6-dimethylphenyl)-1-methyl-N^7,N^7-dipropyl-1H-benzimidazole-2,7-diamine]", "values": [
      {"measurement": "inhibition at 1 µM", "value": "> 80", "unit": "%"}
    ]},
    {"smiles": "CCCN(CCC)c1cccc2nc(Nc3cc(OC)c(OC)cc3C)n(C)c12", "note": "[Example 46, N^2-(4,5-dimethoxy-2-methylphenyl)-1-methyl-N^7,N^7-dipropyl-1H-benzimidazole-2,7-diamine]", "values": [
      {"measurement": "inhibition at 1 µM", "value": "> 80", "unit": "%"}
    ]},
    {"smiles": "COc1ccc(N(c2cccc3nc(Nc4c(C)cc(Cl)cc4OC)n(C)c23)C(C)C)cc1", "note": "[Example 145, N^2-(4-chloro-2-methoxy-6-methylphenyl)-N^7-isopropyl-N^7-(4-methoxyphenyl)-1-methyl-1H-benzimidazole-2,7-diamine]", "values": [
      {"measurement": "inhibition at 1 µM", "value": "> 80", "unit": "%"}
    ]},
    {"smiles": "CCC1CCCCN1c1cccc2nc(Nc3c(C)cc(Br)cc3OC)n(C)c12", "note": "(centres unmarked) [Example 183, N-(4-Bromo-2-methoxy-6-methylphenyl)-7-(2-ethyl-1-piperidinyl)-1-methyl-1H-benzimidazol-2-amine]", "values": [
      {"measurement": "inhibition at 1 µM", "value": "> 80", "unit": "%"}
    ]}
  ]
}
